One series can be described thus: PAMPA permeability assay. It is filed as in vitro ADME. The settings on record: pH 7, PAMPA; for Papp at 5 h, 10 µM: pH 7, 10 μM.
In series [1] the target is T1, PDGFRβ (Homo sapiens (Human), UniProt P09619). Briefly: PDGFRβ enzyme inhibition (ADP-Glo assay). It is filed as biochemical. The note with it: mean, n = 2 (nintedanib n = 34).
Series [2] addresses T1, PDGFRβ. Briefly: PDGF-BB induced phosphorylation of PDGFRβ in fibroblasts (MRC5, HTRF). It is filed as cell-based. The settings on record: MRC5 cells, PDGFBB stimulation; read-out: PDGFBB-induced PDGFRβ phosphorylation in MRC5 cells (IC50).
Another series has as its system MRC5 cells. Put plainly: Cell viability assay in MRC5 cells (MTT).

The structures appear in SMILES notation. Counter-ions that a name gives are not always drawn.

T1 sequence (P09619 33-1106): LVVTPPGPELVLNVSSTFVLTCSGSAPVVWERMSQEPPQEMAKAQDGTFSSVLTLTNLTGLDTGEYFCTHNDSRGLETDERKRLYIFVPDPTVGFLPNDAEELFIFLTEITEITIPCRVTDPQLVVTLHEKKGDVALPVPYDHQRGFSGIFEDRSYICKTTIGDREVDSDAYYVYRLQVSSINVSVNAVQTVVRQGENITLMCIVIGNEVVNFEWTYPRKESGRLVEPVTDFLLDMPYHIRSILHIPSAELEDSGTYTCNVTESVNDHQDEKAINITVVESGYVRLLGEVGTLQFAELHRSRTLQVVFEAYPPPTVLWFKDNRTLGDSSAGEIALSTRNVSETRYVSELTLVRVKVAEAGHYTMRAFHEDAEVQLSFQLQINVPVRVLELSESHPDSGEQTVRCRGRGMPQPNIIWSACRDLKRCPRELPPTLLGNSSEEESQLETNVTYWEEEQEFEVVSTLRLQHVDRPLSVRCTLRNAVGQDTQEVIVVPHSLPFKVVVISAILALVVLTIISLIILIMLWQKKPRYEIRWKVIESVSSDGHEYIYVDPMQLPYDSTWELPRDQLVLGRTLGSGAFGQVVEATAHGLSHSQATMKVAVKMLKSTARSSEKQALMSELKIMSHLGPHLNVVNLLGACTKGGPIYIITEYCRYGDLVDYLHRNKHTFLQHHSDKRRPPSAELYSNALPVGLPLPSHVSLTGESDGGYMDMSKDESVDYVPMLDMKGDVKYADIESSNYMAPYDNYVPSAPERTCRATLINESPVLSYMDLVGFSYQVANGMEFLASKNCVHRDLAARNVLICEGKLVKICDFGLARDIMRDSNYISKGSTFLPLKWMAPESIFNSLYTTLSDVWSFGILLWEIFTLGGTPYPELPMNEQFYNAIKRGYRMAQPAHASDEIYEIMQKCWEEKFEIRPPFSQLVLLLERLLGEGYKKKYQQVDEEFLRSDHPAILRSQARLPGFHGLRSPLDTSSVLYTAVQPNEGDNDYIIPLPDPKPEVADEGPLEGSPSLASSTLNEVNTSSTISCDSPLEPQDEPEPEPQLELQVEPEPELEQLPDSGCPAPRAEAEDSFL

With `COC(=O)c1cc2c(cc1C)/C(=C(/Nc1ccc(C(=O)NCCN3CCN(S(C)(=O)=O)CC3)cc1)c1ccccc1)C(=O)N2` [Example 44, (Z)-Methyl-5-methyl-3-(((4-((2-(4-(methylsulfonyl)piperazin-1-yl)ethyl)carbamoyl)phenyl)amino)(phenyl)methylene)-2-oxoindoline-6-carboxylate], in “PAMPA permeability assay”, the recovery at 5 hr, 10 μM was determined as 71.7% and the Papp at 5 h, 10 µM turned out to be 0.00879 ×10⁻⁶ cm/s. Affinity at PDGFRβ [1] was put at a Ki of 0.0178 µM. Further, the IC50 at PDGFRβ [2] was found to be 0.00333 µM. In the series with MRC5 cells, the “Cell viability at 100 nM (%)” value is on record as 98.4%, the “Cell viability at 300 nM (%)” value came out at 78.4% and the “Cell viability at 1000 nM (%)” value came out at 60.4%.
For `COCCN(C)CCNC(=O)c1ccc(N/C(=C2\C(=O)Nc3cc(C(=O)OC)c(C)cc32)c2ccccc2)cc1` [Example 35, (Z)-Methyl 3-(((4-((2-((2-methoxyethyl)(methyl)amino)ethyl)carbamoyl)phenyl)amino)(phenyl)methylene)-5-methyl-2-oxoindoline-6-carboxylate, 0.5 formate], in “PAMPA permeability assay”, the recovery at 5 hr, 10 μM was 79.2% and the Papp at 5 h, 10 µM was 10.7 ×10⁻⁶ cm/s. The compound also returned a Ki on PDGFRβ [1] of 0.017 µM. Further, the IC50 at PDGFRβ [2] came out at 0.0173 µM. Besides, in the series on MRC5 cells, the “Cell viability at 100 nM (%)” value is 99.8%, the “Cell viability at 300 nM (%)” value was found to be 122.5% and the “Cell viability at 1000 nM (%)” value is 99.1%.
In “PAMPA permeability assay”, `COC(=O)c1cc2c(cc1C)/C(=C(/Nc1ccc(C(=O)N3CCN(C)CC3)cc1)c1ccccc1)C(=O)N2` [Example 17, (Z)-Methyl 5-methyl-3-(((4-(4-methylpiperazine-1-carbonyl)phenyl)amino)(phenyl)methylene)-2-oxoindoline-6-carboxylate] yielded a recovery at 5 hr, 10 μM of 59.8% and a Papp at 5 h, 10 µM of 24.6 ×10⁻⁶ cm/s. This compound also had a Ki on PDGFRβ [1] of 0.00939 µM. Further, on PDGFRβ [2], the IC50 turned out to be 0.00448 µM. In the series on MRC5 cells, the “Cell viability at 100 nM (%)” value came out at 76.2%, the “Cell viability at 300 nM (%)” value is reported as 63.6% and the “Cell viability at 1000 nM (%)” value came out at 34.1%.
Regarding `COC(=O)c1cc2c(cc1C)/C(=C(/Nc1ccc(C(=O)N3CCC4(CC3)C(=O)NCCN4C)cc1)c1ccccc1)C(=O)N2` [Example 30, (Z)-Methyl 5-methyl-3-(((4-(1-methyl-5-oxo-1,4,9-triazaspiro[5.5]undecane-9-carbonyl)phenyl)amino)(phenyl)methylene)-2-oxoindoline-6-carboxylate], in “PAMPA permeability assay”, the recovery at 5 hr, 10 μM turned out to be 87.2% and the apparent permeability coefficient (Papp) at 5 h, 10 µM came out at 0.0235 ×10⁻⁶ cm/s. On PDGFRβ [1], this compound registered a Ki of 0.01 µM. The IC50 at PDGFRβ [2] was 0.00602 µM. In the series with MRC5 cells, the “Cell viability at 100 nM (%)” value turned out to be 107.2%, the “Cell viability at 300 nM (%)” value was determined as 85.3% and the “Cell viability at 1000 nM (%)” value is recorded as 16.4%.
In the series “PAMPA permeability assay”, `COC(=O)c1cc2c(cc1C)/C(=C(/Nc1ccc(C(=O)N3CCN(CCO)CC3)cc1)c1ccccc1)C(=O)N2` [Example 19, (Z)-Methyl 3-(((4-(4-(2-hydroxyethyl)piperazine-1-carbonyl)phenyl)amino)(phenyl)methylene)-5-methyl-2-oxoindoline-6-carboxylate, 0.5 formate] showed a recovery at 5 hr, 10 μM of 61.8% and a Papp at 5 h, 10 µM of 0.589 ×10⁻⁶ cm/s. Also, affinity on PDGFRβ [1] was put at a Ki of 0.00879 µM. Besides, on PDGFRβ [2], the half-maximal inhibitory concentration (IC50) worked out at 0.00504 µM. In addition, in the series on MRC5 cells, the “Cell viability at 100 nM (%)” value is 85.5%, the “Cell viability at 300 nM (%)” value is on record as 71.8% and the “Cell viability at 1000 nM (%)” value came to 21.9%.
In the series “PAMPA permeability assay”, `COC(=O)c1cc2c(cc1C)/C(=C(/Nc1ccc(C(=O)NCC3(N(C)C)CCC3)cc1)c1ccccc1)C(=O)N2` [Example 40, (Z)-Methyl 3-(((4-(((1-(dimethylamino)cyclobutyl)methyl)carbamoyl)phenyl)amino)(phenyl)methylene)-5-methyl-2-oxoindoline-6-carboxylate, 0.3 formate] gave a recovery at 5 hr, 10 μM of 56% and a Papp at 5 h, 10 µM of 26.5 ×10⁻⁶ cm/s. Further, affinity on PDGFRβ [1] was put at a Ki of 0.0128 µM. Also, the IC50 on PDGFRβ [2] was 0.0134 µM. Besides, in the series with MRC5 cells, the “Cell viability at 100 nM (%)” value is 95.4%, the “Cell viability at 300 nM (%)” value worked out at 88% and the “Cell viability at 1000 nM (%)” value came out at 82.9%.
In the series “PAMPA permeability assay”, `COC(=O)c1cc2c(cc1C)/C(=C(/Nc1ccc(C(=O)NCCN3CCCN(C(C)=O)CC3)cc1)c1ccccc1)C(=O)N2` [Example 34, (Z)-Methyl 3-(((4-((2-(4-acetyl-1,4-diazepan-1-yl)ethyl)carbamoyl)phenyl)amino)(phenyl)methylene)-5-methyl-2-oxoindoline-6-carboxylate] displayed a recovery at 5 hr, 10 μM of 41.1% and a Papp at 5 h, 10 µM of 0.00748 ×10⁻⁶ cm/s. The Ki on PDGFRβ [1] is 0.0144 µM. Moreover, the IC50 at PDGFRβ [2] amounted to 0.00471 µM. For the same compound, in the series with MRC5 cells, the “Cell viability at 100 nM (%)” value is recorded as 82.9%, the “Cell viability at 300 nM (%)” value was determined as 74.4% and the “Cell viability at 1000 nM (%)” value is recorded as 16.2%.
In the series “PAMPA permeability assay”, `COC(=O)c1cc2c(cc1C)/C(=C(/Nc1ccc(S(=O)(=O)NCCN(C)C)cc1)c1ccccc1)C(=O)N2` [Example 25, (Z)-Methyl 3-(((4-(N-(2-(dimethylamino)ethyl)sulfamoyl)phenyl)amino)(phenyl)methylene)-5-methyl-2-oxoindoline-6-carboxylate, formate] had a recovery at 5 hr, 10 μM of 105% and a Papp at 5 h, 10 µM of 11 ×10⁻⁶ cm/s. At PDGFRβ [1], this compound displayed a Ki of 0.0117 µM. In addition, the IC50 at PDGFRβ [2] stood at 0.0242 µM. Also, in the series with MRC5 cells, the “Cell viability at 100 nM (%)” value is reported as 83.2%, the “Cell viability at 300 nM (%)” value is listed as 74.7% and the “Cell viability at 1000 nM (%)” value was determined as 55.4%.
As for `COC(=O)c1cc2c(cc1C)/C(=C(/Nc1ccc(C(=O)N3CCC(C(=O)NCCN(C)C)CC3)cc1)c1ccccc1)C(=O)N2` [Example 31, (Z)-Methyl 3-(((4-(4-((2-(dimethylamino)ethyl)carbamoyl)piperidine-1-carbonyl)phenyl)amino)(phenyl)methylene)-5-methyl-2-oxoindoline-6-carboxylate, 0.4 formate], in “PAMPA permeability assay”, the recovery at 5 hr, 10 μM amounted to 66.2% and the Papp at 5 h, 10 µM was found to be 0.00531 ×10⁻⁶ cm/s. The affinity on PDGFRβ [1], expressed as Ki, was 0.00483 µM. Further, the IC50 at PDGFRβ [2] was 0.00552 µM. Moreover, in the series with MRC5 cells, the “Cell viability at 100 nM (%)” value is given as 69.3%, the “Cell viability at 300 nM (%)” value was found to be 47.3% and the “Cell viability at 1000 nM (%)” value amounted to 34.3%.
In the series “PAMPA permeability assay”, `COCCN1CCC(NC(=O)c2ccc(N/C(=C3\C(=O)Nc4cc(C(=O)OC)c(C)cc43)c3ccccc3)cc2)CC1` [Example 20, (Z)-Methyl 3-(((4-((1-(2-methoxyethyl)piperidin-4-yl)carbamoyl)phenyl)amino)(phenyl)methylene)-5-methyl-2-oxoindoline-6-carboxylate] showed a recovery at 5 hr, 10 μM of 104% and a Papp at 5 h, 10 µM of 0.0165 ×10⁻⁶ cm/s. This compound also had a Ki on PDGFRβ [1] of 0.0191 µM. Moreover, the IC50 at PDGFRβ [2] came out at 0.0389 µM. In addition, in the series on MRC5 cells, the “Cell viability at 100 nM (%)” value is given as 92.6%, the “Cell viability at 300 nM (%)” value was 91.7% and the “Cell viability at 1000 nM (%)” value is on record as 87.2%.
As to `COC(=O)c1cc2c(cc1C)/C(=C(/Nc1ccc(C(=O)NCCC(=O)N3CCN(C)CC3)cc1)c1ccccc1)C(=O)N2` [Example 10, (Z)-Methyl 5-methyl-3-(((4-((3-(4-methylpiperazin-1-yl)-3-oxopropyl)carbamoyl)phenyl)amino) (phenyl)methylene)-2-oxoindoline-6-carboxylate], in “PAMPA permeability assay”, the recovery at 5 hr, 10 μM was determined as 70.4% and the Papp at 5 h, 10 µM is 0.0428 ×10⁻⁶ cm/s. The compound also showed a Ki on PDGFRβ [1] of 0.0127 µM. Further, the IC50 on PDGFRβ [2] amounted to 0.0159 µM. Besides, in the series on MRC5 cells, the “Cell viability at 100 nM (%)” value came to 85%, the “Cell viability at 300 nM (%)” value amounted to 118.9% and the “Cell viability at 1000 nM (%)” value amounted to 108.4%.
Regarding `CNC(=O)CN1CCN(C(=O)c2ccc(N/C(=C3\C(=O)Nc4cc(C(=O)OC)c(C)cc43)c3ccccc3)cc2)CC1` [Example 11, (Z)-Methyl 5-methyl-3-(((4-(4-(2-(methylamino)-2-oxoethyl)piperazine-1-carbonyl)phenyl)amino) (phenyl)methylene)-2-oxoindoline-6-carboxylate], in “PAMPA permeability assay”, the recovery at 5 hr, 10 μM was found to be 93.2% and the Papp at 5 h, 10 µM worked out at 0.0479 ×10⁻⁶ cm/s. For the same compound, affinity at PDGFRβ [1] was put at a Ki of 0.0106 µM. Further, at PDGFRβ [2], the IC50 turned out to be 0.00275 µM. Moreover, in the series on MRC5 cells, the “Cell viability at 100 nM (%)” value came to 82%, the “Cell viability at 300 nM (%)” value was found to be 67.8% and the “Cell viability at 1000 nM (%)” value was 28.5%.
In the series “PAMPA permeability assay”, `COC(=O)c1cc2c(cc1C)/C(=C(/Nc1ccc(S(=O)(=O)N3CCN(CCO)CC3)cc1)c1ccccc1)C(=O)N2` [Example 26, (Z)-Methyl 3-(((4-((4-(2-hydroxyethyl)piperazin-1-yl)sulfonyl)phenyl)amino)(phenyl)methylene)-5-methyl-2-oxoindoline-6-carboxylate, formate] returned a recovery at 5 hr, 10 μM of 96.2% and a Papp at 5 h, 10 µM of 10.3 ×10⁻⁶ cm/s. The Ki at PDGFRβ [1] was found to be 0.045 µM. Also, the IC50 on PDGFRβ [2] is 0.0181 µM. Besides, in the series with MRC5 cells, the “Cell viability at 100 nM (%)” value is given as 84.4%, the “Cell viability at 300 nM (%)” value was 91.6% and the “Cell viability at 1000 nM (%)” value is on record as 57.6%.
In “PAMPA permeability assay”, `COC(=O)c1cc2c(cc1C)/C(=C(/Nc1ccc(C(=O)N3CCC(CO)(CN(C)C)CC3)cc1)c1ccccc1)C(=O)N2` [Example 38, (Z)-Methyl-3-(((4-(4-((dimethylamino)methyl)-4-(hydroxymethyl)piperidine-1-carbonyl)phenyl)amino)(phenyl)methylene)-5-methyl-2-oxoindoline-6-carboxylate] had a recovery at 5 hr, 10 μM of 70.3% and a Papp at 5 h, 10 µM of 0.0269 ×10⁻⁶ cm/s. Also, the Ki at PDGFRβ [1] was 0.00479 µM. For the same compound, the IC50 at PDGFRβ [2] was 0.0017 µM. For the same compound, in the series on MRC5 cells, the “Cell viability at 100 nM (%)” value was 70.7%, the “Cell viability at 300 nM (%)” value came to 63% and the “Cell viability at 1000 nM (%)” value is given as 4.2%.
